Laboratory results as given in paper PMC6325200, “Effects of Microplate Type and Broth Additives on Microdilution MIC Susceptibility Assays” (Antimicrobial Agents and Chemotherapy, 2018).
Converted amounts (≈) assume the structure as drawn.

Tests used:
K. pneumoniae ATCC 13883 = assay: microbe, parasite or virus in culture; conditions: Klebsiella pneumoniae, n = 2
Summary of the method: (§1)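 Broth microdilution: 2-fold serial dilutions of test compounds plus reference antibiotics; inoculum = culture diluted 40x in MH broth ±Tween, 37°C, 2–3 h. Controls per plate: bacteria alone (positive), medium alone (negative).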

P. aeruginosa ATCC 10145 = assay: microbe, parasite or virus in culture; conditions: Pseudomonas aeruginosa, n = 2
Summary of the method: as §1

A. baumannii ATCC 19606 = assay: microbe, parasite or virus in culture; conditions: Acinetobacter baumannii, n = 2
Summary of the method: as §1

E. coli = conditions: literature value; cited from earlier work
E. coli ATCC 25922 = assay: microbe, parasite or virus in culture; conditions: n = 2
Description: A positive control of a row of just the bacteria and a negative control of only the medium were included for every plate tested.
The compounds along with standard antibiotics were serially diluted 2-fold across the 96-well plates. […] A sample of each culture was then diluted 40-fold in fresh MH broth (in presence and absence of Tween) and incubated at 37°C for 2 to 3 h.
For experiments in the presence of surfactant, 2% beractant (25 mg/ml) was added to the mid-log-phase cultures and mixed gently and added to all the 96-well plates. For experiments in the presence of serum, a mixture of 50% of human serum along with 50% MHB was prepared and used throughout the experiment.

COc1cc(Cc2cnc(N)nc2N)cc(OC)c1OC [Trimethoprim, trimethoprim]
MIC (K. pneumoniae ATCC 13883; ATCC13883, Corning NBS, MHB +T80): 1 to 2 µg/mL (≈ 3.44 to 6.89 µM)
MIC (K. pneumoniae ATCC 13883; ATCC13883, Corning NBS, MHB -T80): 4 to 8 µg/mL (≈ 13.8 to 27.6 µM)
MIC (K. pneumoniae ATCC 13883; ATCC13883, Corning PS, MHB +T80): 2 to 4 µg/mL (≈ 6.89 to 13.8 µM)
MIC (K. pneumoniae ATCC 13883; ATCC13883, Corning PS, MHB -T80): 1 to 8 µg/mL (≈ 3.44 to 27.6 µM)
MIC (K. pneumoniae ATCC 13883; ATCC13883, Corning TC, MHB +T80): 4 to 16 µg/mL (≈ 13.8 to 55.1 µM)
MIC (K. pneumoniae ATCC 13883; ATCC13883, Corning TC, MHB -T80): 4 to 16 µg/mL (≈ 13.8 to 55.1 µM)
MIC (P. aeruginosa ATCC 10145; ATCC10145, Corning NBS, MHB +T80): > 64 µg/mL
MIC (P. aeruginosa ATCC 10145; ATCC10145, Corning NBS, MHB -T80): > 64 µg/mL
MIC (P. aeruginosa ATCC 10145; ATCC10145, Corning PS, MHB +T80): > 64 µg/mL
MIC (P. aeruginosa ATCC 10145; ATCC10145, Corning PS, MHB -T80): > 64 µg/mL
MIC (P. aeruginosa ATCC 10145; ATCC10145, Corning TC, MHB +T80): > 64 µg/mL
MIC (P. aeruginosa ATCC 10145; ATCC10145, Corning TC, MHB -T80): > 64 µg/mL
MIC (A. baumannii ATCC 19606; ATCC19606, Corning NBS, MHB +T80): 64 µg/mL (≈ 220 µM)
MIC (A. baumannii ATCC 19606; ATCC19606, Corning NBS, MHB -T80): 16 to 32 µg/mL (≈ 55.1 to 110 µM)
MIC (A. baumannii ATCC 19606; ATCC19606, Corning PS, MHB +T80): > 64 µg/mL
MIC (A. baumannii ATCC 19606; ATCC19606, Corning PS, MHB -T80): > 64 µg/mL
MIC (A. baumannii ATCC 19606; ATCC19606, Corning TC, MHB +T80): 32 to 64 µg/mL (≈ 110 to 220 µM)
MIC (A. baumannii ATCC 19606; ATCC19606, Corning TC, MHB -T80): 16 to 32 µg/mL (≈ 55.1 to 110 µM)
MIC (literature) (E. coli): 0.06–0.25 ([72]) µg/ml
MIC (E. coli ATCC 25922; Corning NBS plate, MHB −T80, no additive): 0.25 to 0.5 µg/mL
MIC (E. coli ATCC 25922; Corning PS plate, MHB +0.002% T80, no further additive): 1 to 2 µg/mL
MIC (E. coli ATCC 25922; Corning PS plate, MHB −T80, no additive): 0.25 to 0.5 µg/mL
MIC (E. coli ATCC 25922; Corning TC plate, MHB +0.002% T80, no further additive): 0.5 to 1 µg/mL
MIC (E. coli ATCC 25922; Corning TC plate, MHB −T80, no additive): 0.25 to 0.5 µg/mL
MIC (E. coli ATCC 25922; Escherichia coli, ATCC25922, 24 h, Corning NBS, MH + 2% LHB, 2% LS): 1 µg/mL
MIC (E. coli ATCC 25922; Escherichia coli, ATCC25922, 24 h, Corning NBS, MH + 2% LHB, 50% HS): 1 to 2 µg/mL
MIC (E. coli ATCC 25922; Escherichia coli, ATCC25922, 24 h, Corning NBS, MH + 2% LHB, no additive): 1 µg/mL
MIC (E. coli ATCC 25922; Escherichia coli, ATCC25922, 24 h, Corning NBS, MH + T80, 2% LS): 2 µg/mL
MIC (E. coli ATCC 25922; Escherichia coli, ATCC25922, 24 h, Corning NBS, MH + T80, 50% HS): 2 µg/mL
MIC (E. coli ATCC 25922; Escherichia coli, ATCC25922, 24 h, Corning PS, MH + 2% LHB, 2% LS): 1 to 2 µg/mL
MIC (E. coli ATCC 25922; Escherichia coli, ATCC25922, 24 h, Corning PS, MH + 2% LHB, 50% HS): 1 to 8 µg/mL
MIC (E. coli ATCC 25922; Escherichia coli, ATCC25922, 24 h, Corning PS, MH + 2% LHB, no additive): 1 to 2 µg/mL
MIC (E. coli ATCC 25922; Escherichia coli, ATCC25922, 24 h, Corning PS, MH + T80, 2% LS): 1 to 2 µg/mL
MIC (E. coli ATCC 25922; Escherichia coli, ATCC25922, 24 h, Corning PS, MH + T80, 50% HS): 1 to 2 µg/mL
MIC (E. coli ATCC 25922; Escherichia coli, ATCC25922, 24 h, Corning TC, MH + 2% LHB, 2% LS): 1 to 2 µg/mL
MIC (E. coli ATCC 25922; Escherichia coli, ATCC25922, 24 h, Corning TC, MH + 2% LHB, 50% HS): 1 to 2 µg/mL
MIC (E. coli ATCC 25922; Escherichia coli, ATCC25922, 24 h, Corning TC, MH + 2% LHB, no additive): 1 µg/mL
MIC (E. coli ATCC 25922; Escherichia coli, ATCC25922, 24 h, Corning TC, MH + T80, 2% LS): 1 to 2 µg/mL
MIC (E. coli ATCC 25922; Escherichia coli, ATCC25922, 24 h, Corning TC, MH + T80, 50% HS): 1 to 2 µg/mL
MIC (E. coli ATCC 25922; Escherichia coli, ATCC25922, 24 h, Trek PS, MH + 2% LHB, 2% LS): 0.5 to 1 µg/mL
MIC (E. coli ATCC 25922; Escherichia coli, ATCC25922, 24 h, Trek PS, MH + 2% LHB, 50% HS): 1 µg/mL
MIC (E. coli ATCC 25922; Escherichia coli, ATCC25922, 24 h, Trek PS, MH + 2% LHB, no additive): 1 µg/mL
MIC (E. coli ATCC 25922; Escherichia coli, ATCC25922, 24 h, Trek PS, MH + T80, 2% LS): 2 µg/mL
MIC (E. coli ATCC 25922; Escherichia coli, ATCC25922, 24 h, Trek PS, MH + T80, 50% HS): 2 to 4 µg/mL
MIC (E. coli ATCC 25922; Escherichia coli, ATCC25922, Corning NBS plate, MHB +0.002% T80, no further additive): 1 µg/mL (≈ 3.44 µM)
MIC (E. coli ATCC 25922; Escherichia coli, ATCC25922, Corning NBS plate, MHB −T80, no additive): 0.25 to 0.5 µg/mL (≈ 0.861 to 1.72 µM)
MIC (E. coli ATCC 25922; Escherichia coli, ATCC25922, Corning NBS, MH, 2% LS): 1 to 2 µg/mL (≈ 3.44 to 6.89 µM)
MIC (E. coli ATCC 25922; Escherichia coli, ATCC25922, Corning NBS, MH, 50% HS): 1 to 2 µg/mL (≈ 3.44 to 6.89 µM)
MIC (E. coli ATCC 25922; Escherichia coli, ATCC25922, Corning PS plate, MHB +0.002% T80, no further additive): 1 to 2 µg/mL (≈ 3.44 to 6.89 µM)
MIC (E. coli ATCC 25922; Escherichia coli, ATCC25922, Corning PS plate, MHB −T80, no additive): 0.25 to 0.5 µg/mL (≈ 0.861 to 1.72 µM)
MIC (E. coli ATCC 25922; Escherichia coli, ATCC25922, Corning PS, MH, 2% LS): 1 µg/mL (≈ 3.44 µM)
MIC (E. coli ATCC 25922; Escherichia coli, ATCC25922, Corning PS, MH, 50% HS): 1 to 2 µg/mL (≈ 3.44 to 6.89 µM)
MIC (E. coli ATCC 25922; Escherichia coli, ATCC25922, Corning TC plate, MHB +0.002% T80, no further additive): 0.5 to 1 µg/mL (≈ 1.72 to 3.44 µM)
MIC (E. coli ATCC 25922; Escherichia coli, ATCC25922, Corning TC plate, MHB −T80, no additive): 0.25 to 0.5 µg/mL (≈ 0.861 to 1.72 µM)
MIC (E. coli ATCC 25922; Escherichia coli, ATCC25922, Corning TC, MH, 2% LS): 1 to 2 µg/mL (≈ 3.44 to 6.89 µM)
MIC (E. coli ATCC 25922; Escherichia coli, ATCC25922, Corning TC, MH, 50% HS): 0.5 to 1 µg/mL (≈ 1.72 to 3.44 µM)
MIC (E. coli ATCC 25922; Escherichia coli, ATCC25922, Nunc PS plate, MHB +0.002% T80): 0.25 to 0.5 µg/mL (≈ 0.861 to 1.72 µM)
MIC (E. coli ATCC 25922; Escherichia coli, ATCC25922, Nunc PS plate, MHB −T80): 0.25 µg/mL (≈ 0.861 µM)
MIC (E. coli ATCC 25922; Escherichia coli, ATCC25922, Nunc U TC plate, MHB +0.002% T80): 0.25 to 0.5 µg/mL (≈ 0.861 to 1.72 µM)
MIC (E. coli ATCC 25922; Escherichia coli, ATCC25922, Nunc U TC plate, MHB −T80): 0.25 to 0.5 µg/mL (≈ 0.861 to 1.72 µM)
MIC (E. coli ATCC 25922; Escherichia coli, ATCC25922, Nunc flat TC plate, MHB +0.002% T80): 0.25 to 0.5 µg/mL (≈ 0.861 to 1.72 µM)
MIC (E. coli ATCC 25922; Escherichia coli, ATCC25922, Nunc flat TC plate, MHB −T80): 0.25 to 0.5 µg/mL (≈ 0.861 to 1.72 µM)
MIC (E. coli ATCC 25922; Escherichia coli, ATCC25922, Trek PS plate, MHB +0.002% T80, no further additive): 2 µg/mL (≈ 6.89 µM)
MIC (E. coli ATCC 25922; Escherichia coli, ATCC25922, Trek PS plate, MHB −T80, no additive): 0.5 to 1 µg/mL (≈ 1.72 to 3.44 µM)
MIC (E. coli ATCC 25922; Escherichia coli, ATCC25922, Trek PS, MH, 2% LS): 1 to 4 µg/mL (≈ 3.44 to 13.8 µM)
MIC (E. coli ATCC 25922; Escherichia coli, ATCC25922, Trek PS, MH, 50% HS): 1 µg/mL (≈ 3.44 µM)
MIC (E. coli ATCC 25922; Trek PS plate, MHB −T80, no additive): 0.5 to 1 µg/mL
